For test [1], the system named is Uromyces viciae-fabae. Put plainly: Uromyces viciae-fabae / field bean / leaf disc preventative (faba-bean rust). The conditions noted are these: foliar, 288 h, 100 ppm in the applied formulation, field bean leaf discs, inoculated two hours after application, 12 days after application, read-out: disease control compared to untreated control leaf discs. Type of test: in vivo. The method, then: Leaf disks or leaf segments of various plant species are cut from plants grown in a greenhouse. The cut leaf disks or segments are placed in multiwell plates (24-well format) onto water agar. The leaf disks are sprayed with a test solution before (preventative) or after (curative) inoculation. Compounds to be tested are prepared as DMSO solutions (max. 10 mg/ml) which are diluted to the appropriate concentration with 0.025% Tween20 just before spraying. The inoculated leaf disks or segments are incubated under defined conditions (temperature, relative humidity, light, etc.) according to the respective test system. A single evaluation of disease level is carried out 3 to 14 days after inoculation, depending on the pathosystem. Percent disease control relative to the untreated check leaf disks or segments is then calculated. Field bean leaf discs are placed on water agar in multiwell plates (96-well format) and 10 μl of the formulated test compound diluted in acetone and a spreader pipetted onto the leaf disc. Two hours after application leaf discs are inoculated by spraying a spore suspension on the lower leaf surface. The leaf discs are incubated in a climate cabinet at 22° C. with 18 hour day and 70% relative humidity. The activity of a compound is assessed as percent disease control compared to untreated when an appropriate level of disease damage appears in untreated check leaf disks (12 days after application).

The subject of test [2] is Glomerella lagenarium (Colletotrichum lagenarium). The test can be described thus: Glomerella lagenarium (Colletotrichum lagenarium) liquid culture / cucumber / preventative (anthracnose). Type of test: cell-based. The conditions noted are these: Colletotrichum orbiculare, liquid culture in PDB, 24° C., 3-4 days after application, read-out: control of Glomerella lagenarium compared to untreated control (inhibition of growth, photometric). The method, then: Mycelia fragments or conidia suspensions of a fungus prepared either freshly from liquid cultures of the fungus or from cryogenic storage, are directly mixed into nutrient broth. DMSO solutions of the test compound (max. 10 mg/ml) are diluted with 0.025% Tween20 by a factor of 50 and 10 μl of this solution is pipetted into a microtiter plate (96-well format). The nutrient broth containing the fungal spores/mycelia fragments is then added to give an end concentration of the tested compound. The test plates are incubated in the dark at 24° C. and 96% relative humidity. The inhibition of fungal growth is determined photometrically after 2 to 7 days, depending on the pathosystem, and percent antifungal activity relative to the untreated check is calculated. Conidia of the fungus from cryogenic storage are directly mixed into nutrient broth (PDB potato dextrose broth). After placing a (DMSO) solution of test compound into a microtiter plate (96-well format), the nutrient broth containing the fungal spores is added. The test plates are incubated at 24° C. and the inhibition of growth is measured photometrically 3-4 days after application.

Test [3] has as its system Puccinia recondita f. sp. tritici. The test can be described thus: Puccinia recondita f. sp. tritici / wheat / leaf disc curative (brown rust). In kind it is in vivo. Conditions: foliar, wheat leaf segments cv. Kanzler, applied 1 day after inoculation, assessed 6-8 days after application, read-out: control of Puccinia recondita f. sp. tritici compared to untreated control. The method, then: Leaf disks or leaf segments of various plant species are cut from plants grown in a greenhouse. The cut leaf disks or segments are placed in multiwell plates (24-well format) onto water agar. The leaf disks are sprayed with a test solution before (preventative) or after (curative) inoculation. Compounds to be tested are prepared as DMSO solutions (max. 10 mg/ml) which are diluted to the appropriate concentration with 0.025% Tween20 just before spraying. The inoculated leaf disks or segments are incubated under defined conditions (temperature, relative humidity, light, etc.) according to the respective test system. A single evaluation of disease level is carried out 3 to 14 days after inoculation, depending on the pathosystem. Percent disease control relative to the untreated check leaf disks or segments is then calculated. Wheat leaf segments cv. Kanzler are placed on agar in multiwell plates (24-well format). The leaf segments are inoculated with a spore suspension of the fungus. Plates are stored in darkness at 19° C. and 75% rh. The formulated test compound diluted in water is applied 1 day after inoculation. The leaf segments are incubated at 19° C. and 75% rh under a light regime of 12 h light/12 h darkness in a climate cabinet and the activity of a compound is assessed as percent disease control compared to untreated when an appropriate level of disease damage appears in untreated check leaf segments (6-8 days after application).

Test [4] has the same test system. The test can be described thus: Puccinia recondita f. sp. tritici / wheat / leaf disc preventative (brown rust). In kind it is in vivo. The conditions noted are these: foliar, wheat leaf segments cv. Kanzler, inoculated 1 day after application, assessed 7-9 days after application, read-out: control of Puccinia recondita f. sp. tritici compared to untreated control. The method, then:
Leaf disks or leaf segments of various plant species are cut from plants grown in a greenhouse. The cut leaf disks or segments are placed in multiwell plates (24-well format) onto water agar. The leaf disks are sprayed with a test solution before (preventative) or after (curative) inoculation. Compounds to be tested are prepared as DMSO solutions (max. 10 mg/ml) which are diluted to the appropriate concentration with 0.025% Tween20 just before spraying. The inoculated leaf disks or segments are incubated under defined conditions (temperature, relative humidity, light, etc.) according to the respective test system. A single evaluation of disease level is carried out 3 to 14 days after inoculation, depending on the pathosystem. Percent disease control relative to the untreated check leaf disks or segments is then calculated. Wheat leaf segments cv. Kanzler are placed on agar in multiwell plates (24-well format) and sprayed with the formulated test compound diluted in water. The leaf disks are inoculated with a spore suspension of the fungus 1 day after application. The inoculated leaf segments are incubated at 19° C. and 75% rh under a light regime of 12 h light/12 h darkness in a climate cabinet and the activity of a compound is assessed as percent disease control compared to untreated when an appropriate level of disease damage appears in untreated check leaf segments (7-9 days after application).

The test system of test [5] is Phakopsora pachyrhizi. Put plainly: Phakopsora pachyrhizi / soybean / leaf disc preventative (Asian soybean rust). In kind it is in vivo. Conditions: foliar, soybean leaf disks, inoculated one day after application, assessed 12-14 days after application, read-out: control of Phakopsora pachyrhizi compared to untreated control. The method, then:
Leaf disks or leaf segments of various plant species are cut from plants grown in a greenhouse. The cut leaf disks or segments are placed in multiwell plates (24-well format) onto water agar. The leaf disks are sprayed with a test solution before (preventative) or after (curative) inoculation. Compounds to be tested are prepared as DMSO solutions (max. 10 mg/ml) which are diluted to the appropriate concentration with 0.025% Tween20 just before spraying. The inoculated leaf disks or segments are incubated under defined conditions (temperature, relative humidity, light, etc.) according to the respective test system. A single evaluation of disease level is carried out 3 to 14 days after inoculation, depending on the pathosystem. Percent disease control relative to the untreated check leaf disks or segments is then calculated. Soybean leaf disks are placed on water agar in multiwell plates (24-well format) and sprayed with the formulated test compound diluted in water. One day after application leaf discs are inoculated by spraying a spore suspension on the lower leaf surface. After an incubation period in a climate cabinet of 24-36 hours in darkness at 20° C. and 75% rh leaf disc are kept at 20° C. with 12 h light/12 h darkness and 75% rh. The activity of a compound is assessed as percent disease control compared to untreated when an appropriate level of disease damage appears in untreated check leaf disks (12-14 days after application).

The term inhibition denotes the change of the read-out against control, counted positive when it falls.

Regarding `CON(Cc1c(Cl)cc(Cl)cc1Cl)C(=O)c1ccc(-c2noc(C(F)(F)F)n2)cc1F` [Compound 1.3, 2-fluoro-N-methoxy-N-[(2,4,6-trichlorophenyl)methyl]-4-[5-(trifluoromethyl)-1,2,4-oxadiazol-3-yl]benzamide], in test [1], the pest or weed control at 100 ppm was at least 80%.

For `CON(C(=O)c1ccc(-c2noc(C(F)(F)F)n2)cc1F)C(C)COC1CCCCO1` (stereo not drawn) [Compound 1.9, 2-fluoro-N-methoxy-N-(1-methyl-2-tetrahydropyran-2-yloxy-ethyl)-4-[5-(trifluoromethyl)-1,2,4-oxadiazol-3-yl]benzamide], in test [2], the inhibition at 20 ppm is at least 80%. In addition, in test [1], the pest or weed control at 100 ppm was at least 80%.

As to `CON(C(=O)c1ccc(-c2noc(C(F)(F)F)n2)cc1F)C(C)CO` (stereo not drawn) [Compound 1.12, 2-fluoro-N-(2-hydroxy-1-methyl-ethyl)-N-methoxy-4-[5-(trifluoromethyl)-1,2,4-oxadiazol-3-yl]benzamide], in test [3], the pest or weed control at 200 ppm is at least 80%. Further, the inhibition at 20 ppm in test [2] was at least 80%. In addition, the pest or weed control at 100 ppm in test [1] is at least 80%.

In the case of `CON(C)C(=O)Cc1ccc(-c2noc(C(F)(F)F)n2)c(F)c1` [Compound 1.18, 2-[3-fluoro-4-[5-(trifluoromethyl)-1,2,4-oxadiazol-3-yl]phenyl]-N-methoxy-N-methyl-acetamide], the pest or weed control at 200 ppm in test [4], in test [3] and in test [5] was at least 80% throughout. Besides, the inhibition at 20 ppm in test [2] is at least 80%.

For `CON(C(=O)Cc1ccc(-c2noc(C(F)(F)F)n2)c(F)c1)C(C)c1ccccc1` (stereo not drawn) [Compound 1.24, 2-[3-fluoro-4-[5-(trifluoromethyl)-1,2,4-oxadiazol-3-yl]phenyl]-N-methoxy-N-(1-phenylethyl)acetamide], in test [4], the pest or weed control at 200 ppm is at least 80%. In addition, the inhibition at 20 ppm in test [2] was at least 80%.

Consider `CON(C(=O)Cc1ccc(-c2noc(C(F)(F)F)n2)c(F)c1)C(C)C1CC1` (stereo not drawn) [Compound 1.25, N-(1-cyclopropylethyl)-2-[3-fluoro-4-[5-(trifluoromethyl)-1,2,4-oxadiazol-3-yl]phenyl]-N-methoxy-acetamide], for which, in test [3], the pest or weed control at 200 ppm was at least 80%. In addition, in test [2], the inhibition at 20 ppm was at least 80%.

With `COC(=O)C1(N(O)C(=O)c2ccc(-c3noc(C(F)(F)F)n3)cc2)CCN(OC)CC1` [Compound 2.1, methyl 4-[hydroxy-[4-[5-(trifluoromethyl)-1,2,4-oxadiazol-3-yl]benzoyl]amino]-1-methoxy-piperidine-4-carboxylate], the pest or weed control at 200 ppm in test [4] and in test [5] was at least 80% throughout. Also, the inhibition at 20 ppm in test [2] is at least 80%. Further, the pest or weed control at 100 ppm in test [1] was at least 80%.

For the molecule `COC(=O)[C@H](C)N(OC)C(=O)c1ccc(-c2noc(C(F)(F)F)n2)cc1` [Compound 2.3, methyl (2S)-2-[methoxy-[4-[5-(trifluoromethyl)-1,2,4-oxadiazol-3-yl]benzoyl]amino]propanoate], in test [3], the pest or weed control at 200 ppm was at least 80%. In addition, the inhibition at 20 ppm in test [2] is at least 80%. Besides, the pest or weed control at 100 ppm in test [1] was at least 80%.

On to `COC(=O)C(C)N(OC)C(=O)c1ccc(-c2noc(C(F)(F)F)n2)cc1` (stereo not drawn) [Compound 2.9, methyl 2-[methoxy-[4-[5-(trifluoromethyl)-1,2,4-oxadiazol-3-yl]benzoyl]amino]propanoate], for which the pest or weed control at 200 ppm in test [3] was at least 80%. Also, the inhibition at 20 ppm in test [2] was at least 80%. Moreover, the pest or weed control at 100 ppm in test [1] is at least 80%.

`CON(C(=O)Cc1ccc(-c2noc(C(F)(F)F)n2)cc1)C1COC1` [Compound 2.19, N-methoxy-N-(oxetan-3-yl)-2-[4-[5-(trifluoromethyl)-1,2,4-oxadiazol-3-yl]phenyl]acetamide]: the pest or weed control at 200 ppm in test [4] and in test [3] was at least 80% in each case. The inhibition at 20 ppm in test [2] was at least 80%.

For `CON(C(=O)Cc1ccc(-c2noc(C(F)(F)F)n2)cc1)C(C)c1ccccc1` (stereo not drawn) [Compound 2.20, N-methoxy-N-(1-phenylethyl)-2-[4-[5-(trifluoromethyl)-1,2,4-oxadiazol-3-yl]phenyl]acetamide], in test [2], the inhibition at 20 ppm is at least 80%.

As for `CON(C(=O)Cc1ccc(-c2noc(C(F)(F)F)n2)cc1)C(C)C1CC1` (stereo not drawn) [Compound 2.21, N-(1-cyclopropylethyl)-N-methoxy-2-[4-[5-(trifluoromethyl)-1,2,4-oxadiazol-3-yl]phenyl]acetamide], the inhibition at 20 ppm in test [2] is at least 80%.

Regarding `CON(CC1CC1)C(=O)Cc1ccc(-c2noc(C(F)(F)F)n2)cc1` [Compound 2.22, N-(cyclopropylmethyl)-N-methoxy-2-[4-[5-(trifluoromethyl)-1,2,4-oxadiazol-3-yl]phenyl]acetamide], the pest or weed control at 200 ppm in test [3] and in test [5] was at least 80% in each case. The inhibition at 20 ppm in test [2] was at least 80%.

`CON(CC1CC1C1CC1)C(=O)Cc1ccc(-c2noc(C(F)(F)F)n2)cc1` (stereo not drawn) [Compound 2.25, N-[(2-cyclopropylcyclopropyl)methyl]-N-methoxy-2-[4-[5-(trifluoromethyl)-1,2,4-oxadiazol-3-yl]phenyl]acetamide]: the inhibition at 20 ppm in test [2] is at least 80%.

Take `O=C(Cc1ccc(-c2noc(C(F)(F)F)n2)cc1)N(O)CC1CC1C1CC1` (stereo not drawn) [Compound 2.26, N-[(2-cyclopropylcyclopropyl)methyl]-N-hydroxy-2-[4-[5-(trifluoromethyl)-1,2,4-oxadiazol-3-yl]phenyl]acetamide]: the pest or weed control at 200 ppm in test [4] and in test [3] was at least 80% in each case. The inhibition at 20 ppm in test [2] was at least 80%.
